How the values were obtained:
[1] = test system: brain ChE; assay: brain ChE activity in parathion-treated rats; type: in vivo, rat
[2] = type: in vivo, rat; conditions: after parathion 8 mg/kg oral; 60 min
[3] = test system: female Long-Evans rats; conditions: out of 5 rats dosed with parathion 8 mg/kg oral; 60 min
[4] = test system: rat; conditions: ref Gaines, 1960; cited from earlier work
[5] = substrate: CC1=CC(=O)c2ccccc2C1=O; assay: CPR-mediated redox cycling, H2O2 formation; type: biochemical, human; conditions: other: menadione as redox cycling substrate of CPR; Amplex Red; pH 7.8; 37.0 °C
[6] = substrate: CC1=CC(=O)c2ccccc2C1=O; assay: CPR-mediated redox cycling, hydroxyl radical formation; type: biochemical, human; conditions: other: menadione; Fe/EDTA, terephthalate; pH 7.8; 37.0 °C
[7] = parathion 8 mg/kg oral gavage alone, 60 min

CC1(S(=O)(=O)[O-])CC(=O)c2ccccc2C1=O.[Na+] (centres unmarked) [menadione bisulfite]
parathion-induced inhibition of brain cholinesterase activity ([1]; menadione bisulfite 40 mg/kg, ip): reduced

CCOP(=O)(OCC)Oc1ccc([N+](=O)[O-])cc1 [paraoxon, diethyl 4-nitrophenyl phosphate]
paraoxon levels in serum, liver and brain [2]: could not be detected

CCOP(=S)(OCC)Oc1ccc([N+](=O)[O-])cc1 [parathion, diethyl 4-nitrophenyl phosphorothionate]
forebrain ChE activity inhibited [1, 7]: 95% | hindbrain ChE activity inhibited [1, 7]: 87% | rats that died before the end of the observation period [3]: 1 | rat oral LD50 [4]: 2 to 13 mg/kg

B1: recombinant human CPR (Homo sapiens) (protein)
chain: MGDSHVDTSSTVSEAVAEEVSLFSMTDMILFSLIVGLLTYWFLFRKKKEEVPEFTKIQTLTSSVRESSFVEKMKKTGRNIIVFYGSQTGTAEEFANRLSKDAHRYGMRGMSADPEEYDLADLSSLPEIDNALVVFCMATYGEGDPTDNAQDFYDWLQETDVDLSGVKFAVFGLGNKTYEHFNAMGKYVDKRLEQLGAQRIFELGLGDDDGNLEEDFITWREQFWPAVCEHFGVEATGEESSIRQYELVVHTDIDAAKVYMGEMGRLKSYENQKPPFDAKNPFLAAVTTNRKLNQGTERHLMHLELDISDSKIRYESGDHVAVYPANDSALVNQLGKILGADLDVVMSLNNLDEESNKKHPFPCPTSYRTALTYYLDITNPPRTNVLYELAQYASEPSEQELLRKMASSSGEGKELYLSWVVEARRHILAILQDCPSLRPPIDHLCELLPRLQARYYSIASSSKVHPNSVHICAVVVEYETKAGRINKGVATNWLRAKEPAGENGGRALVPMFVRKSQFRLPFKATTPVIMVGPGTGVAPFIGFIQERAWLRQQGKEVGETLLYYGCRRSDEDYLYREELAQFHRDGALTQLNVAFSREQSHKVYVQHLLKQDREHLWKLIEGGAHIYVCGDARNMARDVQNTFYDIVAELGAMEHAQAVDYIKKLMTKGRYSLDVWS
Km [5]: 4.1 µM | Km [6]: 1.7 µM
